# Measured values taken from patent US4666897A, “Inhibition of mammalian collagenolytic enzymes by tetracyclines” (Research Foundation of State University, priority 1983, dated 1987).
# Key:
# [1] = during a therapeutic regimen; cited from earlier work
# germfree diabetic rats = test: Gingival collagenolytic activity, bone loss and skin collagen in germ-free streptozotocin-diabetic rats; type: in vivo, rat
# Description: At this time (6 weeks after purchase), diabetes was induced in some of the animals, as described above in a), and the control and diabetic animals maintained under germfree conditions for an additional 6 weeks prior to sacrifice. […] Blood and tissues were then obtained to assess gingival collagenolytic enzyme activity and the loss of skin collagen and bone. The results are set forth below and illustrated in FIG. II. Alveolar bone loss was assessed in the right and left mandibles of both the conventional and germfree rats (control and diabetic) using a modification of a previously described technique (Stralfors, et.al, Archs. Oral. Biol., 12, 1213-1216 (1967); Heijl, et. al., J. […] Periodontal Res., 13, 316-325 (1978)) using an eye-piece micrometer in a dissecting microscope (20× magnification). Because uncontrolled diabetes in the rat results in the massive resorption of skin collagen associated with increased collagenase activity in this tissue, the collagen content of entire skins from the germfree and from the conventional control and diabetic rats, including those treated with minocycline was measured. The techniques used were those described by […] and Golub, (Streptozotocin: Fundamentals and Therapy (Ed. M. K. Agarwal, Elsevier/North-Holland Biomed Press, Chapter 12, pp 161-182, (1981)). The techniques used to measure the collagenolytic enzyme activity of gingival tissue in culture, and in polymorphonuclear leucocytes (PMNLs), are those described by Golub, et. al., (J. Dent. Res., 57, 520-525 (197)8) and Nicoll, et. al., (Experimentia, 37, 315-317, (1981)) with minor modifications.
# [2] = system: GCF collagenase and gingival disease in non-diabetic male; test: Human GCF study, non-diabetic; type: in vivo
# Description: In a separate study involving humans, gingival crevicular fluid (GCF) samples were collected on filter paper strips inserted into 8 interproximal pockets of selected teeth in the maxillary arch of two twin brothers with juvenile-onset (insulin-dependent) diabetes mellitus. Fluid volume was immediately determined on a modified Periotron (Model 6000, Harco Electronics Ltd., Winnipeg, Canada); then incubated with 10 μl (^3 H-methyl) collagen (20,675 DPM) and 70 μl buffer (50 mM Tris-HCl, pH 7.8, containing 0.2 M sodium chloride and 5 mM calcium chloride). The GCF samples (or reagent blanks or trypsin controls) were incubated at 27° C. for 18 hours with gentle shaking. The reaction was stopped and undigested collagen precipitated by adding 10 μl 0.1 M phenanthroline in dioxane/water (1:1, v/v), 10 μl of nonradioactive methylated carrier collagen (2 mg/ml) in 50 mM Tris-HCl buffer containing 1M NaCl (pH 7.0), and 100 μl dioxane. After mixing, the radiolabeled collagen degradation products were collected by filtration and counted in a liquid scintillation spectrometer (Golub, et. al., 1976, J. Dent. Res., 55, 1049). Using this technique, the reaction blank (no enzyme or GCF added) released about 10% of the total substrate counts; 2-20 ng bacterial collagenase produced a linear increase in the release of radioactive counts from the ^3 H-collagen substrate (the 20 ng level of enzyme degraded 60% of the collagen substrate); and 50 ng trypsin released less than 1% of the counts above blank values. GCF collagenase activity was expressed as units of equivalent activity of vertebrate collagenase (obtained from New England Nuclear, Cat. No. NEK-016); 1 unit was operationally defined as the amount of enzyme that degrades 1 μg of collagen per hour at 27° C.
# […] PD=4.2 mm±0.3), and GCF collagenolytic activity was measured as described above. […] Two additional GCF samples were collected from the same 4 mm pocket, in this patient, before and after minocycline therapy. These samples were incubated with 10 μl ^3 H-collagen for 18 hours (22° C.), then thermally denatured and the collagen subunits and collagenase digestion products were separated by SDS-polyacrylamide gel electrophoresis (Nicoll, et. al., Experientia., 37, 315-317 (1981)). The gels were processed for fluorography (see Sodek, et. al., J. Periodontal. Res., 16, 425-433 (1981)) and exposed to Kodak X A R-5 film for 3 days.
# [3] = GCF from the same 4 mm pocket before and after therapy
structure (smiles),measurement,setting,value
"CN(C)c1ccc(O)c2c1C[C@H]1C[C@H]3[C@H](N(C)C)C(O)=C(C(N)=O)C(=O)[C@@]3(O)C(O)=C1C2=O [minocycline, Minocycline]",concentration in human serum,[1],approximately 2 ug/ml
same,concentration in the gingival crevicular fluid relative to serum,[1],4-5 times greater
same,increase of skin collagen levels,"germfree diabetic rats; germ-free diabetic rats, 20 mg/day for the last 4 weeks, versus untreated diabetics",45%
same,bone levels,"germfree diabetic rats; germfree control, diabetic and minocycline-treated diabetic rats",no differences
same,reduction of gingival collagenolytic activity (tissue culture),"germfree diabetic rats; germfree diabetic rats, 20 mg/day by gavage for the last 4 weeks",70%
same,densitometric analysis of fluorographs: degradation products,[2]; GCF before and after therapy,reduced the percentage of the total radiolabeled collagenous material present as degradation products
same,breakdown of intact ^3 H-collagen by GCF (SDS-PAGE fluorography),[2]; [3],reduced the breakdown of the intact collagen
same,production of α^A and α^B collagen digestion fragments by GCF (fluorography),[2]; [3],inhibited the production
same,pocket depth,[2]; non-diabetic patient two,essentially unchanged
same,reduction of G. I.,[2]; non-diabetic patient two,26%
same,reduction of GCF flow,[2]; non-diabetic patient two,71%
same,reduction of trypsin-activated collagenase in GCF,[2]; non-diabetic patient two,59%
same,reduction of active collagenase in GCF,"[2]; non-diabetic patient two, minocycline therapy as in (a)",86%
